{
  "source": "patent US9115081B2",
  "about": "“Synthetic process for aminocyclohexyl ether compounds” (Cardiome Pharma Corp., priority 2004, dated 2015)",
  "test_system": "sustained AF maintained during continuous vagal nerve stimulation",
  "assay": "Canine vagal-AF model: termination of sustained AF by drug infused IV",
  "format": "in vivo, dog",
  "settings": "for Effective doses for terminating AF: anesthetized mongrel dogs, IV over 5 min, cell format number of dogs-dose",
  "description": "Mongrel dogs of either sex weighing 15-49 kg are anesthetized with morphine (2 mg/kg im initially, followed by 0.5 mg/kg IV every 2 h) and α-chloralose (120 mg/kg IV followed by an infusion of 29.25 mg/kg/h; St.-Georges et al., 1997). Dogs are ventilated mechanically with room air supplemented with oxygen via an endotracheal tube at 20 to 25 breaths/minute with a tidal volume obtained from a nomogram. Arterial blood gases are measured and kept in the physiological range (SAO2>90%, pH 7.30-7.45). Catheters are inserted into the femoral artery for blood pressure recording and blood gas measurement, and into both femoral veins for drug administration and venous sampling. Catheters are kept patent with heparinized 0.9% saline solution. Body temperature is maintained at 37-40° C. with a heating blanket.\nThe heart is exposed via a medial thoracotomy and a pericardial cradle is created. Three bipolar stainless steel, Teflon™-coated electrodes are inserted into the right atria for recording and stimulation, and one is inserted into the left atrial appendage for recording. A programmable stimulator (Digital Cardiovascular Instruments, Berkeley, Calif.) is used to stimulate the right atrium with 2 ms, twice diastolic threshold pulses. Two stainless steel, Teflon™-coated electrodes are inserted into the left ventricle, one for recording and the other for stimulation. […]\nDrug effects to terminate sustained AF maintained during continuous vagal nerve stimulation are assessed. […] The vagal stimulation voltage is adjusted under control conditions, and then readjusted after each treatment to maintain the same bradycardic effect. […]\nDiastolic threshold current is determined at a basic cycle length of 300 ms by increasing the current 0.1 mA incrementally until stable capture is obtained. […] Atrial and ventricular ERP is measured with the extrastimulus method, over a range of S1S2 intervals at a basic cycle length of 300 ms. […] Diastolic threshold and ERP are determined in duplicate and averaged to give a single value. […]",
  "data": [
    {"smiles": "O=C(NCC1CCCCN1)c1cc(OCC(F)(F)F)ccc1OCC(F)(F)F", "note": "(stereo not drawn) [Flecainide]", "values": [
      {"measurement": "Effective doses for terminating AF", "setting": "AF terminated at this dose in 1 dog", "value": 10, "unit": "µmol/kg"},
      {"measurement": "Effective doses for terminating AF", "setting": "AF terminated at this dose in 4 dogs", "value": 2.5, "unit": "µmol/kg"},
      {"measurement": "Effectiveness as a control in terminating vagal AF", "setting": "control in the present study, compared with earlier reports", "value": "comparable to that previously reported"}
    ]}
  ]
}
